In ChEMBL document CHEMBL4507298 (2021):

Tests used:
[1] = molecular target: Vascular endothelial growth factor receptor 1 (Homo sapiens) (UniProt P17948); assay: FLT-1 kinase (h) (VEGFR1) CEREP ligand profiling; details: Compound concentration 10.0 uM
[2] = molecular target: Gastrin/cholecystokinin type B receptor (Homo sapiens) (UniProt P32239); assay: CCKB (h) (CCK2) CEREP ligand profiling; details: Compound concentration 10.0 uM
[3] = molecular target: Mitogen-activated protein kinase kinase kinase 6 (Homo sapiens) (UniProt O95382); details: Compound concentration 1000.0 nM
Chain of Mitogen-activated protein kinase kinase kinase 6 (Homo sapiens) (O95382 whole entry): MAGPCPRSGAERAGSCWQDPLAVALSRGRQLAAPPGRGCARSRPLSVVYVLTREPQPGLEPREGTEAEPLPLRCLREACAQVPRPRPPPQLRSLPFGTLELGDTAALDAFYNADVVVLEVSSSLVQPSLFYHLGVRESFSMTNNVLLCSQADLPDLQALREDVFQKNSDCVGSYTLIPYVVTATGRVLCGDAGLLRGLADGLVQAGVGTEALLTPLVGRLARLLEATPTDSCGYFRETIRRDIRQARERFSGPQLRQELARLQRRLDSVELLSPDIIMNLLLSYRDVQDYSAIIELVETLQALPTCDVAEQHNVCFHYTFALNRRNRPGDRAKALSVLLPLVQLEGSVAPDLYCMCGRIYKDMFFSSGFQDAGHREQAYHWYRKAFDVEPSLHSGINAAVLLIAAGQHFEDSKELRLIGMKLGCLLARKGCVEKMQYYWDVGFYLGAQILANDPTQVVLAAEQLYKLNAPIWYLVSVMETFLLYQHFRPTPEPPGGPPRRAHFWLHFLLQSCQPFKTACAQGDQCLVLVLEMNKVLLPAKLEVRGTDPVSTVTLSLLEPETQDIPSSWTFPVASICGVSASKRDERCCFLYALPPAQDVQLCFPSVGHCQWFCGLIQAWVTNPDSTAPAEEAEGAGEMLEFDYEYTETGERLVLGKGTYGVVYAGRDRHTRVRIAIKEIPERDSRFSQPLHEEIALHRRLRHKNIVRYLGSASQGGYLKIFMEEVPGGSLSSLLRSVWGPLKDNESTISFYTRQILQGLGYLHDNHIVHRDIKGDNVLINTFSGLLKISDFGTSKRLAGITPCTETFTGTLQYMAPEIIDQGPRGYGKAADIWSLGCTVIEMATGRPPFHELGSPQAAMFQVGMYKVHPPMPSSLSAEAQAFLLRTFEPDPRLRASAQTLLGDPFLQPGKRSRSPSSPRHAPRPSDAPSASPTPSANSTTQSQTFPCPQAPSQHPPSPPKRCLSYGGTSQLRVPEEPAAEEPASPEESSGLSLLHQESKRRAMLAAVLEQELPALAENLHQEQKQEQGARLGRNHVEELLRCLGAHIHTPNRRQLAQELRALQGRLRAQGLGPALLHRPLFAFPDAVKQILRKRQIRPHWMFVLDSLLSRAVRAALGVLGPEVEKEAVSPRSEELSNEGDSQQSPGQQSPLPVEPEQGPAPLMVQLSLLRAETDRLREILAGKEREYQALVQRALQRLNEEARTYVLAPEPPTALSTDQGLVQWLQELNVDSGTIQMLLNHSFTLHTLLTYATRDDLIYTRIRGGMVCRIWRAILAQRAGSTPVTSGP

[4] = molecular target: Dual specificity mitogen-activated protein kinase kinase 3 (Homo sapiens) (UniProt P46734); details: Compound concentration 1000.0 nM
[5] = molecular target: Mitogen-activated protein kinase kinase kinase kinase 5 (Homo sapiens) (UniProt Q9Y4K4); details: Compound concentration 1000.0 nM
Chain of Mitogen-activated protein kinase kinase kinase kinase 5 (Homo sapiens) (Q9Y4K4 whole entry, looked up): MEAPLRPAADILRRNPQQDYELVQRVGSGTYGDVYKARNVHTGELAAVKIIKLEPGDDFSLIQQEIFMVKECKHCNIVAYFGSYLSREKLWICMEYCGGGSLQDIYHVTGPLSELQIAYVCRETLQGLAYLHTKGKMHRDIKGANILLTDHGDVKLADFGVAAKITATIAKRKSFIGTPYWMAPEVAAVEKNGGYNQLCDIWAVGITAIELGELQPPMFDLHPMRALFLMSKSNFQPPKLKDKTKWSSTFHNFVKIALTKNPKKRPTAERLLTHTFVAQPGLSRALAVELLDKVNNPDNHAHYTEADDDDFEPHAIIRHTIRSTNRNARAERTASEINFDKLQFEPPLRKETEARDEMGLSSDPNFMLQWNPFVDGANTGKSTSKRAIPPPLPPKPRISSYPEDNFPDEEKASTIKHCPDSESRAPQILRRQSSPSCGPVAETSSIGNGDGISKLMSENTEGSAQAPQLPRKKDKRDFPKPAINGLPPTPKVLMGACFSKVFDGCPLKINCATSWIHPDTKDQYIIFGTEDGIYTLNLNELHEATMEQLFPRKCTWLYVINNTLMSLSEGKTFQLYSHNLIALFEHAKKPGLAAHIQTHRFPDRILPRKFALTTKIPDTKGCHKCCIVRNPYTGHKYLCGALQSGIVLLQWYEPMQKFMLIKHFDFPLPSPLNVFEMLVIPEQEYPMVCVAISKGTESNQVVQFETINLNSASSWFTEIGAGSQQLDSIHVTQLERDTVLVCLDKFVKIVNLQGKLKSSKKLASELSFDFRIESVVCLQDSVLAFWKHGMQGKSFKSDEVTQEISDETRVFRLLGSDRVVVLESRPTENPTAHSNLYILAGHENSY

[6] = system: Receptor-type tyrosine-protein kinase FLT3 (Homo sapiens), P36888 [UNDEFINED MUTATION]; details: Compound concentration 1000.0 nM
Chain of Receptor-type tyrosine-protein kinase FLT3 (Homo sapiens), P36888 [UNDEFINED MUTATION] (P36888 whole entry, looked up, change not shown): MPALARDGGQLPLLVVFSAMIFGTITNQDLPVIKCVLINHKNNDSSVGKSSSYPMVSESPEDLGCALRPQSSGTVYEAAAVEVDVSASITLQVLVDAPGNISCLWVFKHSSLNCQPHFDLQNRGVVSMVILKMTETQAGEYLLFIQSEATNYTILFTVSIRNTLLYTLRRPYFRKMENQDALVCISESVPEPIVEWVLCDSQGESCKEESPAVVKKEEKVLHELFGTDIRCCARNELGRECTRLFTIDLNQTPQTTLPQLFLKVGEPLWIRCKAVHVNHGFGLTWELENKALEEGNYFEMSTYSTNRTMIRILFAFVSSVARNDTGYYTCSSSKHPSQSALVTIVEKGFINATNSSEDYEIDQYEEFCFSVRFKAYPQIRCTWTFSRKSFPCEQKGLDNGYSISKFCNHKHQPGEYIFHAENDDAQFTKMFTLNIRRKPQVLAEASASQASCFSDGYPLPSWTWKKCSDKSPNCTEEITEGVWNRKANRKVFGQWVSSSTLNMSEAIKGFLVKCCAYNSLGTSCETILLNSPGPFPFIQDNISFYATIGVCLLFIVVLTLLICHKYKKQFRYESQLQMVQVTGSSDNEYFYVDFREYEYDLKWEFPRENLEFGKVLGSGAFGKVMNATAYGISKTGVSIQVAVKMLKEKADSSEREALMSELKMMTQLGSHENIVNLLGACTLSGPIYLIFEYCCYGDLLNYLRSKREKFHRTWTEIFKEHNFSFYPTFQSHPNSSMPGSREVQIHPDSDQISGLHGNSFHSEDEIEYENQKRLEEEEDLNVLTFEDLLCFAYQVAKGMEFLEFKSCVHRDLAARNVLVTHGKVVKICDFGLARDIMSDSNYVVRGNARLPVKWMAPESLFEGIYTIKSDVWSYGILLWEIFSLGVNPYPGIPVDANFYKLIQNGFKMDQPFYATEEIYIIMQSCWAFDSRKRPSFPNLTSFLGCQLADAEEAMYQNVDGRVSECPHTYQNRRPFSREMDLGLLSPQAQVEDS

[7] = molecular target: 5-hydroxytryptamine receptor 5A (Homo sapiens) (UniProt P47898); details: Compound concentration 10.0 uM
[8] = molecular target: Myosin-IIIb (Homo sapiens) (UniProt Q8WXR4); details: Compound concentration 1000.0 nM
[9] = molecular target: Non-receptor tyrosine-protein kinase TYK2 (Homo sapiens) (UniProt P29597); details: Compound concentration 1000.0 nM
[10] = molecular target: Ephrin type-A receptor 5 (Homo sapiens) (UniProt P54756); details: Compound concentration 1000.0 nM
[11] = molecular target: Testis-specific serine/threonine-protein kinase 3 (Homo sapiens) (UniProt Q96PN8); details: Compound concentration 1000.0 nM
Chain of Testis-specific serine/threonine-protein kinase 3 (Homo sapiens) (Q96PN8 whole entry): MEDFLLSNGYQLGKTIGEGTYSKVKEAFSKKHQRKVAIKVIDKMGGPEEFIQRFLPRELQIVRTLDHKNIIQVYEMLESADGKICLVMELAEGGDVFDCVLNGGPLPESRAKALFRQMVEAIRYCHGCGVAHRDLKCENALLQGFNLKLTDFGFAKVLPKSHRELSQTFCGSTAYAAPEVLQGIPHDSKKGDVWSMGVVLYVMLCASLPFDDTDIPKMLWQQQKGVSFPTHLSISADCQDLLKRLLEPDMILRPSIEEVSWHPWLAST

[12] = molecular target: Serine/threonine-protein kinase ULK2 (Homo sapiens) (UniProt Q8IYT8); details: Compound concentration 1000.0 nM
[13] = molecular target: STE20/SPS1-related proline-alanine-rich protein kinase (Homo sapiens) (UniProt Q9UEW8); details: Compound concentration 1000.0 nM
[14] = molecular target: Serine/threonine-protein kinase/endoribonuclease IRE1 (Homo sapiens) (UniProt O75460); details: Compound concentration 1000.0 nM
[15] = molecular target: Homeodomain-interacting protein kinase 2 (Homo sapiens) (UniProt Q9H2X6); details: Compound concentration 1000.0 nM
[16] = molecular target: cAMP-dependent protein kinase catalytic subunit PRKX (Homo sapiens) (UniProt P51817); details: Compound concentration 1000.0 nM
[17] = molecular target: Adenosine receptor A1 (Homo sapiens) (UniProt P30542); assay: A1 (h) CEREP ligand profiling; details: Compound concentration 10.0 uM
Chain of Adenosine receptor A1 (Homo sapiens) (P30542 whole entry): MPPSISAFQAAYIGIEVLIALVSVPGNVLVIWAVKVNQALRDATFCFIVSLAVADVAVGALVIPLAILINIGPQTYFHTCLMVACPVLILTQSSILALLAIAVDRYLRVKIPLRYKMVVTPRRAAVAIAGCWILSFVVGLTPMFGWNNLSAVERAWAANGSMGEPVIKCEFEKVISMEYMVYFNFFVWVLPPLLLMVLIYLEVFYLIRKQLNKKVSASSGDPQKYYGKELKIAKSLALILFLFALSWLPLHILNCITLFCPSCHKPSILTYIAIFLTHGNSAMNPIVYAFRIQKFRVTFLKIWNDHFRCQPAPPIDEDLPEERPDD

[18] = molecular target: Sigma intracellular receptor 2 (Homo sapiens) (UniProt Q5BJF2); details: Compound concentration 10.0 uM
Chain of Sigma intracellular receptor 2 (Homo sapiens) (Q5BJF2 whole entry): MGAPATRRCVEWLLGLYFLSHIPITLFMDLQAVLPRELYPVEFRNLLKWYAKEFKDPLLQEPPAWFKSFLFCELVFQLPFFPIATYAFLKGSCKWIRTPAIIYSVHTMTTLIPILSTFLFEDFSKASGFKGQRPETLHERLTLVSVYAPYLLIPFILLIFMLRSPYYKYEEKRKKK

[19] = molecular target: Histamine H4 receptor (Homo sapiens, UniProt Q9H3N8); assay: H4 (h) CEREP ligand profiling; details: Compound concentration 10.0 uM
Chain of Histamine H4 receptor (Q9H3N8 whole entry): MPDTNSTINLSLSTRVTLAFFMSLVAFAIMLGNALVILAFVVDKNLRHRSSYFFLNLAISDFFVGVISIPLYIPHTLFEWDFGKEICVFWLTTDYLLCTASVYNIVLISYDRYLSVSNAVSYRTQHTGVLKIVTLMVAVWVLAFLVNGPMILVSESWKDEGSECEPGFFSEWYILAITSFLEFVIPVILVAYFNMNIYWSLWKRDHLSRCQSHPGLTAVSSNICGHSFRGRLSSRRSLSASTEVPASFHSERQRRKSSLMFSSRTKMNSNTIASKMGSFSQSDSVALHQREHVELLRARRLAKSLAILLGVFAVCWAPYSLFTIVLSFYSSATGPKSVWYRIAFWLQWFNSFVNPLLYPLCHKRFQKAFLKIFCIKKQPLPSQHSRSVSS

[20] = molecular target: Dual specificity protein kinase CLK1 (Homo sapiens) (UniProt P49759); details: Compound concentration 1000.0 nM
[21] = molecular target: Tyrosine-protein kinase BTK (Homo sapiens) (UniProt Q06187); details: Compound concentration 1000.0 nM
[22] = molecular target: T1, Muscarinic acetylcholine receptor M5 (Homo sapiens) (UniProt P08912); assay: M5 (h) CEREP ligand profiling; details: Compound concentration 10.0 uM
T1 sequence (whole entry): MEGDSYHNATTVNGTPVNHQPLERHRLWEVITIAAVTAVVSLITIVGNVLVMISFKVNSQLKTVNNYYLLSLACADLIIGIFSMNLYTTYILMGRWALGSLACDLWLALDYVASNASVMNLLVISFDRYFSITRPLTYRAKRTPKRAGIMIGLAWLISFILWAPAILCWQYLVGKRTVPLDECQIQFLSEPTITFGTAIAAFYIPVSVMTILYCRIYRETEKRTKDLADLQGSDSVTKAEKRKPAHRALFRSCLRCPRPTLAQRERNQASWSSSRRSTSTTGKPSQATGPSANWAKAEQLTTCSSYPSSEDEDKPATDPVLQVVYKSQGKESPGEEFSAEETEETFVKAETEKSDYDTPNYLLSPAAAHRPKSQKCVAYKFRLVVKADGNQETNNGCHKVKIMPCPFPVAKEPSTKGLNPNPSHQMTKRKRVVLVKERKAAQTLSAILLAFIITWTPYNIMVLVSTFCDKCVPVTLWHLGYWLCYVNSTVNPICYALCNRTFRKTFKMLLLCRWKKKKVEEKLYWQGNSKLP

[23] = molecular target: Tyrosine-protein kinase SYK (Homo sapiens) (UniProt P43405); details: Compound concentration 1000.0 nM
[24] = molecular target: CYP2D6 (Homo sapiens, UniProt P10635); assay: CYP2D6 inhibition CEREP ligand profiling; details: compound concentration 10 uM
[25] = molecular target: Serine/threonine-protein kinase RIO3 (Homo sapiens) (UniProt O14730); details: Compound concentration 1000.0 nM
[26] = molecular target: Thromboxane A2 receptor (Homo sapiens, UniProt P21731); assay: Binding assay (TBXA2R)
[27] = molecular target: Insulin receptor-related protein (Homo sapiens) (UniProt P14616); details: Compound concentration 1000.0 nM
[28] = molecular target: Voltage-dependent N-type calcium channel subunit alpha-1B (Homo sapiens) (UniProt Q00975); assay: Ca2+ channel (N) CEREP ligand profiling; details: Compound concentration 10.0 uM
[29] = molecular target: Cyclin-dependent kinase 2 homolog (Plasmodium falciparum (isolate 3D7)) (UniProt P61075); details: Compound concentration 1000.0 nM
[30] = system: Mast/stem cell growth factor receptor Kit (Homo sapiens), P10721 [D816H]; details: Compound concentration 1000.0 nM
[31] = molecular target: MAP kinase-activated protein kinase 5 (Homo sapiens) (UniProt Q8IW41); details: Compound concentration 1000.0 nM
[32] = molecular target: Serine/threonine-protein kinase DCLK3 (Homo sapiens) (UniProt Q9C098); details: Compound concentration 1000.0 nM
[33] = molecular target: Mitogen-activated protein kinase 8 (Homo sapiens) (UniProt P45983); details: Compound concentration 1000.0 nM
[34] = molecular target: Serine/threonine-protein kinase D1 (Homo sapiens) (UniProt Q15139); details: Compound concentration 1000.0 nM
[35] = molecular target: Sodium-dependent dopamine transporter (Homo sapiens) (UniProt Q01959); assay: DA transporter (h) CEREP ligand profiling; details: Compound concentration 10.0 uM
Chain of Sodium-dependent dopamine transporter (Homo sapiens) (Q01959 whole entry): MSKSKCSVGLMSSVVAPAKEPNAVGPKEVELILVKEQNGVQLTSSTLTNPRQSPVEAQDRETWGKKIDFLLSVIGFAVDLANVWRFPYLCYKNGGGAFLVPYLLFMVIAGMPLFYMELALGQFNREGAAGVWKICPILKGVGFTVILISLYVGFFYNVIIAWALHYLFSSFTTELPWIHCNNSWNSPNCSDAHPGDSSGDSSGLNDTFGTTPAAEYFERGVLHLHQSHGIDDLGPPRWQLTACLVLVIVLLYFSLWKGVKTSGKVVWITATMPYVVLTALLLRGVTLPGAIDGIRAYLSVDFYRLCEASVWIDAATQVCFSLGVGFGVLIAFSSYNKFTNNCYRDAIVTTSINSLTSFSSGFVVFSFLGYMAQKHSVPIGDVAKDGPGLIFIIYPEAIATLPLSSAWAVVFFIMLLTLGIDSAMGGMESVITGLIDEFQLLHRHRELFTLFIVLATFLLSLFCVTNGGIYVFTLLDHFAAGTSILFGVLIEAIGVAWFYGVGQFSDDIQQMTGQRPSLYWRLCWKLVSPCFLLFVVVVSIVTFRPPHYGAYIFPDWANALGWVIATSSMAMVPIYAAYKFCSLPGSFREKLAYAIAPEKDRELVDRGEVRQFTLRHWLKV

[36] = molecular target: Serine/threonine-protein kinase PAK 2 (Homo sapiens) (UniProt Q13177); details: Compound concentration 1000.0 nM
[37] = molecular target: Histamine H1 receptor (Homo sapiens) (UniProt P35367); details: Compound concentration 10.0 uM
[38] = molecular target: D(1A) dopamine receptor (Homo sapiens, UniProt P21728); assay: GPCRScan assay: inhibition of D1; parameters: radioligand conc. used [nm] 0.6 – 1.3, parental cells HEKT

Q: How did the inhibition [1] turn out when `COc1ccc2cc(OCC3(C(=O)O)CN(C(=O)c4ccc(F)cc4)C3)ccc2c1` [PF-04418948] was run?
A: Its inhibition is 9%.

Q: What about the inhibition [2] of the same molecule?
A: The inhibition was -8%.

Q: And the residual activity [3]?
A: The residual activity was 95%.

Q: What about the residual activity [4] of the same molecule?
A: The residual activity was 95%.

Q: What about the residual activity [5] of the same molecule?
A: The residual activity was 86%.

Q: What about the residual activity [6] of the same molecule?
A: The residual activity was 91%.

Q: What about the inhibition [7] of the same molecule?
A: The inhibition was -8.97%.

Q: What about the residual activity [8] of the same molecule?
A: Its residual activity is 71%.

Q: And the residual activity [9]?
A: Its residual activity is 89%.

Q: And the residual activity [10]?
A: The residual activity was 78%.

Q: What about the residual activity [11] of the same molecule?
A: The residual activity was 82%.

Q: And the residual activity [12]?
A: The residual activity was 89%.

Q: What about the residual activity [13] of the same molecule?
A: The residual activity was 55%.

Q: What about the residual activity [14] of the same molecule?
A: Its residual activity is 80%.

Q: And the residual activity [15]?
A: The residual activity was 78%.

Q: And the residual activity [16]?
A: Its residual activity is 90%.

Q: And the inhibition [17]?
A: The inhibition was -2%.

Q: And the inhibition [18]?
A: Its inhibition is -1.29%.

Q: And the inhibition [19]?
A: Its inhibition is -4%.

Q: And the residual activity [20]?
A: The residual activity was 79%.

Q: And the residual activity [21]?
A: The residual activity was 84%.

Q: And the inhibition [22]?
A: Its inhibition is 1%.

Q: What about the residual activity [23] of the same molecule?
A: Its residual activity is 64%.

Q: What about the inhibition at 10 µM [24] of the same molecule?
A: The inhibition at 10 µM was 18% (not active).

Q: And the residual activity [25]?
A: Its residual activity is 97%.

Q: What about the Ki [26] of the same molecule?
A: Its Ki is > 10 µM (not active).

Q: What about the residual activity [27] of the same molecule?
A: The residual activity was 67%.

Q: What about the inhibition [28] of the same molecule?
A: Its inhibition is -7%.

Q: What about the residual activity [29] of the same molecule?
A: The residual activity was 97%.

Q: What about the residual activity [30] of the same molecule?
A: The residual activity was 82%.

Q: And the residual activity [31]?
A: The residual activity was 76%.

Q: And the residual activity [32]?
A: The residual activity was 98%.

Q: What about the residual activity [33] of the same molecule?
A: Its residual activity is 76%.

Q: And the residual activity [34]?
A: The residual activity was 96%.

Q: And the inhibition [35]?
A: Its inhibition is 11%.

Q: What about the residual activity [36] of the same molecule?
A: Its residual activity is 83%.

Q: Which results are given for `O=C(c1ccc(F)cc1)N1CC(COc2ccc(Br)cc2)(C(=O)O)C1` [PF-04475866]?
A: inhibition [37]: -4.38%; Ki [38]: 10 µM
